The values below come from ChEMBL document CHEMBL4382262, “Structurally Simple, Readily Available Peptidomimetic 1-Benzyl-5-methyl-4-( n-octylamino)pyrimidin-2(1 H)-one Exhibited Efficient Cardioprotection in a Myocardial Ischemia (MI) Mouse Model” (J Med Chem, 2018).

Series [1] has as its target T1, Toll-like receptor 4 (Rattus norvegicus) (UniProt Q9QX05).
T1 sequence (whole entry): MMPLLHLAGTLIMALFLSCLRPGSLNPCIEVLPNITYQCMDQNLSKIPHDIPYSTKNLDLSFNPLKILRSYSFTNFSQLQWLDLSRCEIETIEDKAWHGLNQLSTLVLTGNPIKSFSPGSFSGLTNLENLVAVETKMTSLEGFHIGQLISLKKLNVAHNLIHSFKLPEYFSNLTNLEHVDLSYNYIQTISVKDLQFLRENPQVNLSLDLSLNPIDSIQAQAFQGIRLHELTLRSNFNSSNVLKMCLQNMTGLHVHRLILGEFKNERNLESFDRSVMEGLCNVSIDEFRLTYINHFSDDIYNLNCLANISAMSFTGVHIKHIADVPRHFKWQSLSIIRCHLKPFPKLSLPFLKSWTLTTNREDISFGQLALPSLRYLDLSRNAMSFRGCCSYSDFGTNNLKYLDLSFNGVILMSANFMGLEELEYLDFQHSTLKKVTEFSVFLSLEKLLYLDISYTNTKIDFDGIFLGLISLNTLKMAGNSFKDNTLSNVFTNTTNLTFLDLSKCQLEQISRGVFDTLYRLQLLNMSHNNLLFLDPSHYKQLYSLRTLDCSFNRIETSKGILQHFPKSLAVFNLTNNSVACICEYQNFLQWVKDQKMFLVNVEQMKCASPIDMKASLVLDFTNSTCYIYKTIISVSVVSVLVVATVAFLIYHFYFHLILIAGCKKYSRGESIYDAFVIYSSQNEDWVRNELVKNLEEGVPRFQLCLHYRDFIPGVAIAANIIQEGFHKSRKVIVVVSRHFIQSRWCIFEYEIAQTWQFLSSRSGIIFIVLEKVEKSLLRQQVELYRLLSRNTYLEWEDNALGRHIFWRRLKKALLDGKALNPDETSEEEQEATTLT
As to the kind of experiment: Inhibition of TLR4 in Sprague-Dawley rat cardiomyocytes assessed as reduction in hypoxia-induced creatine kinase levels at 10 uM preincubated for 1 hr followed by hypoxia for 3 hrs by NADP reduction based colorimetric analysis. In kind it is cell-based.

Series [2] concerns the target T1, Toll-like receptor 4 (Rattus norvegicus). As to the kind of experiment: Inhibition of TLR4 in Sprague-Dawley rat cardiomyocytes assessed as reduction in hypoxia-induced creatine kinase levels at 30 uM preincubated for 1 hr followed by hypoxia for 3 hrs by NADP reduction based colorimetric analysis. It counts as cell-based.
For series [3] the target is unchanged. As to the kind of experiment: Inhibition of TLR4 in Sprague-Dawley rat cardiomyocytes assessed as reduction in hypoxia-induced LDH release at 30 uM preincubated for 1 hr followed by hypoxia for 3 hrs by NADH detection based colorimetric analysis. In kind it is cell-based. For orientation: Release of lactate dehydrogenase indicates damage to the cell membrane.

The nature of series [4]: Reduction in hypoxia-induced TLR4 protein expression in Sprague-Dawley rat cardiomyocytes at 20 uM preincubated for 1 hr followed by hypoxia for 3 hrs by Western blot analysis relative to untreated control. In kind it is functional, Cardiac muscle cell.
In series [5] the target is T1, Toll-like receptor 4 (Rattus norvegicus). As to the kind of experiment: Inhibition of TLR4 in Sprague-Dawley rat cardiomyocytes assessed as reduction in hypoxia-induced IRF3 protein expression at 20 uM preincubated for 1 hr followed by hypoxia for 3 hrs by Western blot analysis relative to untreated control. In kind it is cell-based.
Series [6] has the same target. The experiment in a line: Binding affinity to TLR4 in Sprague-Dawley rat cardiomyocytes at 20 uM after 2 hrs by MS/MS-based pull down assay. It counts as cell-based.
Series [7] concerns Mus musculus. As to the kind of experiment: Cardioprotective activity in C57BL mouse model of left anterior descending coronary artery ligation-induced myocardial ischemia assessed as reduction in troponin levels at 0.3 mg/kg, iv pretreated for 1 hr followed by left anterior descending coronary artery ligation. In kind it is functional, organism-based.
Series [8] can be described thus: Hepatotoxicity in C57BL mouse model of left anterior descending coronary artery ligation-induced myocardial ischemia assessed as effect on serum AST levels at 0.05 to 1 mg/kg, iv pretreated for 1 hr followed by left anterior descending coronary artery ligation. The settings on record: in vivo. It counts as toxicity, organism-based.
Series [9] relates to Mus musculus. As to the kind of experiment: Cardioprotective activity in C57BL mouse model of left anterior descending coronary artery ligation-induced myocardial ischemia assessed as reduction in serum LDH levels at 0.3 mg/kg, iv treated for 1 hr after by left anterior descending coronary artery ligation and measured after 24 hrs post LAD. It counts as functional, organism-based.

The test system of series [10] is Mus musculus. As to the kind of experiment: Cardioprotective activity in C57BL mouse model of left anterior descending coronary artery ligation-induced myocardial ischemia assessed as reduction in creatine kinase levels levels at 0.3 mg/kg, iv treated 1 hr after by left anterior descending coronary artery ligation and measured after 24 hrs post LAD. In kind it is functional, organism-based.

Series [11] has as its system Mus musculus. As to the kind of experiment: Cardioprotective activity in C57BL mouse model of left anterior descending coronary artery ligation-induced myocardial ischemia assessed as reduction in leukocyte infiltration at 0.3 mg/kg, iv treated 1 hr after left anterior descending coronary artery ligation and measured after 7 days post LAD by hematoxylin/eosin staining based light microscopy. In kind it is functional, organism-based.

Series [12] relates to Mus musculus. As to the kind of experiment: Cardioprotective activity in C57BL mouse model of left anterior descending coronary artery ligation-induced myocardial ischemia assessed as survival rate at 0.3 mg/kg, iv treated 1 hr after left anterior descending coronary artery ligation and measured after 7 days post LAD. In kind it is functional.

Each structure is given as a SMILES string. The source made the active and inactive calls. The rule behind the calls is not given here.

In the case of `CCCCCCCCNc1nc(=O)n(Cc2ccccc2)cc1C`, the inhibition result in [1], in series [2] and in [3] was “Active” each time. Further, the “fold change (FC)” value in series [4] and in series [5] was 2.7 throughout. The outcome in [6], in series [7], in [9], in [10] and in series [11] was Active. For the same compound, in [8], the Activity entry is “Non-Toxic”. Moreover, the survival at 0.3 mg/kg in series [12] amounted to 100%.
